Assay results taken from ChEMBL document CHEMBL1124665, “Is there a case for P-450 inhibitors in cancer treatment?” (J Med Chem, 1989).

Columns and labels:
[1] = target: T1, Aromatase (Homo sapiens, UniProt P11511); assay: In vitro inhibition of Cytochrome P450 19A1
T1 sequence (P11511 whole entry): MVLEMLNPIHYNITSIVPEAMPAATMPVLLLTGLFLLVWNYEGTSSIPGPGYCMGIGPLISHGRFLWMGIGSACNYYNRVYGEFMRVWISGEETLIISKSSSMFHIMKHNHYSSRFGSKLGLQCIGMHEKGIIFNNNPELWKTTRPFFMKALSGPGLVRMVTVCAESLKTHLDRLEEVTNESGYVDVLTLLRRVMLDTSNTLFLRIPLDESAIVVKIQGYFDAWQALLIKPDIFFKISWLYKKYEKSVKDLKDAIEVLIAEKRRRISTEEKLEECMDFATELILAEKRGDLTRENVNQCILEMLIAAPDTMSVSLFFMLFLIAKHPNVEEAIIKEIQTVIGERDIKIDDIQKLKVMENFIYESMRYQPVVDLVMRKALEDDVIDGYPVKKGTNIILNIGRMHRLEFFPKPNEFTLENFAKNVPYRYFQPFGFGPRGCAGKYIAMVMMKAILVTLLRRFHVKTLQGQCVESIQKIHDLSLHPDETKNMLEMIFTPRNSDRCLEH

[2] = target: T1, Aromatase; assay: In vitro inactivation of human placental Cytochrome P450 19A1
[3] = target: T1, Aromatase; assay: Effective dose for inhibition of extragonadal estrogen production in baboons; type: functional; settings: papio hamadryas; target entry is the homologue from another species

SMILES: CC12CCC3C(CCC4=C(O)C(=O)CCC43C)C1CCCC2=O (configuration not stated)
- Ki [1]: 10.2 nM
- kinact [2]: 0.00041 s⁻¹

SMILES: C#CC[C@]12CCC(=O)C=C1CC[C@@H]1[C@@H]2CC[C@]2(C)C(=O)CC[C@@H]12 [PLOMESTANE]
- ED50 [3]: 4 mg/kg
- Ki [1]: 4 nM
- kinact [2]: 0.0011 s⁻¹

SMILES: C[C@]12C=CC(=O)C=C1CC[C@@H]1[C@@H]2CC[C@]2(C)OC(=O)CC[C@@H]12 [TESTOLACTONE]
- Ki [1]: 35000 nM
- kinact [2]: 0.00036 s⁻¹
